Laboratory results published in US4098823A, “Monospiroalkyl derivatives of prostaglandins” (Miles Laboratories, Inc., priority 1977, dated 1978).
Values after ≈ are worked out from the molar mass of the structure shown.

What was measured:
[1] = system: Gastric Secretion; test: Effects on Gastric Secretion in the Rat; assay type: in vivo; details: pylorus-ligated rat, subcutaneous, 2 x 1.5 mg/kg (total 3.0 mg/kg), 4 hours
Description: A procedure based on that described by Lipmann (J. Pharm. Pharmacol., 21:335 [1968]) was used to assess the influence of test compounds on gastric secretion. Rats of one sex weighing 150 to 200 g were randomly divided into groups of six animals each and fasted for 48 hours previously to the experiments, water being available adlibitum. The animals were anesthetized with ether, the abdomen was opened through a midline incision and the pylorus was ligated. Test compounds were diluted from stock solution so as to administer a dose of 1.5 mg/kg in a volume equivalent to 1 ml/kg. Subcutaneous injections were applied immediately after surgery and again 2 hours later, so that a total dose of 3.0 mg/kg was administered. Dilutions were made with phosphate buffer (pH 7.38) as recommended by Lee et al. (Prostaglandins 3:29 [1973]), in order to insure adequate stability of drugs at the subcutaneous depot. Each compound was tested in one group of rats; an additional control group received only the vehicle.
Four hours after pyloric ligation the animals were killed with ether, the cardias ligated and the stomachs removed. The volume of gastric secretion was measured and the contents centrifuged at 500 rpm for 10 minutes. Total acid in the supernatant was titrated against a 0.1 N sodium hydroxide solution and the amount expressed in mEq.
Volume and total acid values of the treated group were compared with those of the controls by the "T" test. Antisecretory activity was scored according to the following scale: […]

[2] = system: Rat Uterus; test: Effects on the Rat Uterus in Vitro; assay type: cell-based; details: for EC50: Rattus norvegicus, read-out: Test F Rat Uterus, Activity Value (ED50)
Description: The uterine stimulant effect of test compounds was determined in segments of uterus obtained from rats (140-160 g) pretreated subcutaneously with 1 mg/kg of diethyl-stilbesterol 18 hours before the experiment. The tissues were placed in 10 ml chambers filled with de-Jalon solution at 29° C, were aerated and bubbled with 95% O2 and 5% CO2, and were prepared for isometric recording with force displacement transducers. Preparations were stretched to an initial tension of 1 g and were left undisturbed for 30 minutes. Carbachol (1 mcg/ml) was then added to the bath and a response was recorded. After a 10 minute interval the carbachol procedure was repeated. Responses to increasing concentrations of a test compound (0.001 to 10 mcg/ml with one log intervals) were then recorded every 10 minutes. Preparations were washed four times after each response. All doses of compounds were administered in a 0.1 ml volume. Because it has been observed that the magnitude of the second response to carbachol (approximately 10% greater than the first) is close to the maximal response of the tissue, such value was taken as a measure of the sensitivity of a particular segment. Responses to each concentration of the test compound were expressed in terms of percentage of the second response to carbachol and the ED50 (dose producing a response 50% that of carbachol) was calculated graphically. Activity was scored according to the following scale: […]

[3] = system: chick rectum; test: Cascade Assay, rectum (smooth muscle stimulant effect); assay type: cell-based; details: superfused, 50% of maximum (PGE1)
Description: (§1) The smooth muscle stimulant effects of test compounds were determined simultaneously in four different tissues that are known to be reactive to naturally occurring prostaglandins. Segments of rat stomach fundus, rat colon, chick rectum and rabbit aortic strip were obtained as described by: Vane, J. R., Brit. J. Pharmacol., 12: 344 (1957); Regoli, D. and Vane, J. R., Brit. J. Pharmacol., 23: 351 (1964); Mann, M. and West, G. B., Brit. J. Pharmacol., 5: 173 (1950); and Furchgott, R. F. and Bhadrakom, R., J. Pharmacol. Exper. Ther., 108: 129 (1953). One end of each preparation was tied to the bottom of a 10 ml tissue chamber and the other to a force displacement transducer (Grass FT-03) for continuous tension recording. The stomach, colon, and rectum segments were stretched to an initial tension of 1 g, while the aortic strip was subjected to 4 g. All preparations were left undisturbed for 1 hour prior to testing. The chambers were equipped with an external jacket through which water, maintained at 40° C, was circulated. Preparations were arranged one beneath the other in descending order (aorta, stomach, colon and rectum). Provision was made for bathing the four tissues successively so that they were superfused with the same fluid (Gaddum, H. J., Brit. J. Pharmacol., 6: 321 [1953]. The bathing fluid consisted of: Krebs bicarbonate solution aerated with a mixture of 95% O2 and 5% CO2 and warmed at 37° C; atropine sulphate (0.1 mcg/ml), phenoxybenzamine hydrochloride (0.1 mcg/ml), propranolol hydrochloride (3.0 mcg/ml), methysergide maleate (0.2 mcg/ml) and brompheniramine maleate (0.1 mcg/ml) were added to eliminate the possibility of smooth muscle responses being due to stimulation of cholinergic, adrenergic, serotonin or histamine receptors. The fluid was circulated by means of a roller pump and was allowed to drip over the preparations at a rate of 10 ml/minute.
(§2) Test compounds were diluted from stock solutions so as to administer quantities ranging from 0.001 100,000 ng in a volume of 0.5 ml. The compounds were applied by dripping on the uppermost tissue, at intervals of 10 to 20 minutes. Maximal increases in tension after each dose were measured and the results were used to plot dose-response curves. ED50 data (doses necessary to produce a response 50% of maximum) were then calculated graphically for each tissue.
(§3) Activity in each tissue was scored according to the following scale: […]

[4] = system: rat stomach fundus; test: Cascade Assay, stomach (smooth muscle stimulant effect); assay type: cell-based; details: superfused, 50% of maximum (PGE1)
Description: as §1, §2, §3

[5] = system: rabbit aortic strip; test: Cascade Assay, aorta (smooth muscle stimulant effect); assay type: cell-based; details: superfused, 50% of maximum (PGA2)
Description: as §1, §2, §3

[6] = system: rat colon; test: Cascade Assay, colon (smooth muscle stimulant effect); assay type: cell-based; details: superfused, 50% of maximum (PGF2α)
Description: as §1, §2, §3

[7] = system: Blood Pressure and Heart Rate; test: Effects on Blood Pressure and Heart Rate in the Anesthetized Cat; assay type: in vivo; details: intravenous, 0.01 to 10.0 mcg/kg, scored only on hypotension;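 note: Anesthetized cats given intravenous doses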
Description: The acute effects of test compounds on blood pressure and heart rate were determined in cats of either sex anesthetized with a mixture of pentobarbital sodium (35 mg/kg, i.v.) and barbital sodium (100 mg/kg, i.v.). Cannulas were placed in the trachea to allow adequate spontaneous ventilation, in a femoral artery for blood pressure recording with a strain gage transducer, and in a saphenous vein for drug administration. Heart rate was recorded by means of a cardiotachometer driven by the R wave of the electrocardiogram. After a period of 10 minutes of stable recordings of blood pressure and heart rate, the test compound was administered intravenously at doses increasing from 0.01 to 10.0 mcg/kg, spaced one log and injected at 10 minutes intervals. All doses were injected in a volume of 0.1 ml/kg. Modifications of blood pressure and heart rate induced by the test compound were expressed both in absolute units (mmHg and beats/minutes) and as percent of values recorded immediately before administration of each dose. Biphasic responses were tabulated in the order in which they occur. The direction of the observed changes was also noted (+ for increases and - for decreases).
Activity of compounds in this test was judged only on the basis of the degree of hypotension observed. Thus, the ED50 mmHg (dose decreasing blood pressure by 50 mmHg) was calculated graphically and the compound scored according to the following scale: […]

[8] = in vitro, 29° C, response 50% that of carbachol

| EC50 [2, 8] | Structure (SMILES) | Test B Activity Value (% decrease in acidity, inhibition of gastric secretion) [1] | Test E Cascade Assay, Rectum, Activity Value (ED50) [3] | Test E Cascade Assay, Stomach, Activity Value (ED50) [4] | Test E Cascade Assay, Aorta, Activity Value (ED50) [5] | Test E Cascade Assay, Colon, Activity Value (ED50) [6] | Test F Rat Uterus, Activity Value (ED50) [2, 8] | Test D Activity Value (ED50 mmHg, decrease in blood pressure) [7] | magnitude of second response to carbachol relative to the first ([2]; carbachol 1 mcg/ml, second response greater than the first) |
| --- | --- | --- | --- | --- | --- | --- | --- | --- | --- |
| > 10 µg/mL | COC(=O)CCC/C=C\C[C@H]1C(=O)CCC[C@@H]1/C=C/[C@@H](O)C1CC2(CCC2)C1 (relative stereo) [TR-4758, dl Methyl-7-{6-ozo-2R-∂3S-hydroxy-3-(spiro[3.3]hept-2-yl)-1E-propenyl]cyclohex-1R-yl}hept-5Z-enoate] | 0 (<26) | 0 (>10000) | 0 (>10000) | 0 (>10000) | 0 (>10000) |  |  |  |
| > 10 µg/mL | CC1([C@@H](O)/C=C/[C@H]2[C@H](O)CC(=O)[C@@H]2CCCCCCCO)CC2(CCC2)C1 [TR-4841, 7-{3R-hydroxy-5-oxo-2R-[3S-hydroxy-3-(2-methylspiro[3.3]hept-2-yl)-1E-propenyl]cyclopent-1R-yl}heptan-1-ol] | 0 (<26) | 0 (>10000) | 0 (>10000) | 0 (>10000) | 0 (>10000) |  |  |  |
| > 10 µg/mL | COC(=O)CCCCCC[C@H]1C(=O)C[C@@H](O)[C@@H]1/C=C/[C@H](O)C1(C)CC2(CCC2)C1 [TR-4842, Methyl 7-{3R-hydroxy-5-oxo-2R-[3S-hydroxy-3-(2-methylspiro[3.3]hept-2-yl)-1E-propenyl]cyclopent-1R-yl}heptanoate] | 0 (<26) | 0 (>10000) | 0 (>10000) | 0 (>10000) | 0 (>10000) |  |  |  |
| > 10 µg/mL | COC(=O)CCC/C=C\C[C@H]1C(=O)CCC[C@@H]1/C=C/[C@H](O)C1CC2(CCC2)C1 (relative stereo) [TR-4759, dl Methyl-7-{6-oxo-2R-[3R-hydroxy-3-(spiro[3.3]hept-2-yl)-1E-propenyl]cyclohex-1R-yl}hept-5Z-enoate] | 0 (<26) | 0 (>10000) | 0 (>10000) | 0 (>10000) | 0 (>10000) |  |  |  |
| 0.101 to 1 µg/mL (≈ 0.267 to 2.64 µM) | CC1([C@H](O)/C=C/[C@H]2[C@H](O)CC(=O)[C@@H]2CCCCCCCO)CC2(CCC2)C1 [TR-4852, 7-{3R-hydroxy-5-oxo-2R-[3R-hydroxy-3-(2-methylspiro[3.3]hept-2-yl)-1E-propenyl]cyclopent-1R-yl}heptan-1-ol] | 2 (26-50, significant) | 0 (>10000) | 0 (>10000) | 0 (>10000) | 0 (>10000) |  |  |  |

The next lines start with the molecule.

| Structure (SMILES) | EC50 [2, 8] | Test B Activity Value (% decrease in acidity, inhibition of gastric secretion) [1] | Test E Cascade Assay, Rectum, Activity Value (ED50) [3] | Test E Cascade Assay, Stomach, Activity Value (ED50) [4] | Test E Cascade Assay, Aorta, Activity Value (ED50) [5] | Test E Cascade Assay, Colon, Activity Value (ED50) [6] | Test F Rat Uterus, Activity Value (ED50) [2, 8] | Test D Activity Value (ED50 mmHg, decrease in blood pressure) [7] | magnitude of second response to carbachol relative to the first ([2]; carbachol 1 mcg/ml, second response greater than the first) |
| --- | --- | --- | --- | --- | --- | --- | --- | --- | --- |
| O=C1C[C@@H](O)[C@H](/C=C/[C@H](O)C2CC3(CCC3)C2)[C@H]1CCCCCCCO [TR-4713, 7-{3R-hydroxy-5-oxo-2R-[3R-hydroxy-3-(spiro[3.3]hept-2-yl)-1E-propenyl]cyclopent-1R-yl}heptan-1-ol] | > 10 µg/mL | 4 (76-100) | 1 (1001 - 10000) | 0 (>10000) | 0 (>10000) | 0 (>10000) |  |  |  |
| CCOC(=O)CCC/C=C\C[C@H]1C(=O)C[C@@H](O)[C@@H]1/C=C/[C@@H](O)C1CC2(CCC2)C1 [TR-4727, Ethyl 7-{3R-hydroxy-5-oxo-2R-[3S-hydroxy-3-(spiro[3.3]hept-2-yl)-1E-propenyl]cyclopent-1R-yl}hept-5Z-enoate] | > 10 µg/mL | 0 (<26) | 0 (>10000) | 0 (>10000) | 0 (>10000) | 0 (>10000) |  |  |  |
| CCOC(=O)CCC/C=C\C[C@H]1C(=O)C[C@@H](O)[C@@H]1/C=C/[C@H](O)C1CC2(CCC2)C1 [TR-4726, Ethyl 7-{3R-hydroxy-5-oxo-2R-[3R-hydroxy-3-(spiro[3.3]hept-2-yl)-1E-propenyl]cyclopent-1R-yl}hept-5Z-enoate] | > 10 µg/mL | 0 (<26) | 0 (>10000) | 0 (>10000) | 0 (>10000) | 0 (>10000) |  |  |  |
| COC(=O)CCCCCC[C@H]1C(=O)C=C[C@H]1/C=C/[C@H](O)C1CC2(CCC2)C1 [TR-4127, Methyl 7-{5-oxo-2R-[3R-hydroxy-3-(spiro[3.3]hept-2-yl)-1E-propenyl]cyclopent-3-en-1R-yl}hepanoate] |  |  | 0 (>10000) | 0 (>10000) | 0 (>10000) | 0 (>10000) | 0 (>10) | 0 (>10.0) |  |
| C[N+](C)(C)CCOC(N)=O [carbachol, reference compound] |  |  |  |  |  |  |  |  | approximately 10% |
